Test [1] has as its system Trypanosoma brucei brucei. The test is described as follows: Antitrypanosomal activity against Trypanosoma brucei brucei after 48 hrs. The class given is functional, organism-based.
Test [2] is described as follows: Cytotoxicity against J774.1 cells after 48 hrs. In kind it is cell-based. The note with it: Mus musculus, J774.1, 48 h.

The record followed here is ChEMBL document CHEMBL1146377, “Antitrypanosomal activity of quaternary naphthalimide derivatives” (Bioorg Med Chem Lett, 2007).

As a reminder, the IC50 is the concentration that gives 50% inhibition. The low end stands for greater potency in that assay, the high end for weaker potency in that assay. In turn, `NCCC[C@](N)(C(=O)O)C(F)F` [EFLORNITHINE] returned an IC50 in test [1] of 22.9 µM.

Consider `N=C(N)c1ccc(OCCCCCOc2ccc(C(=N)N)cc2)cc1` [PENTAMIDINE ISETHIONATE], for which half-maximal inhibition in test [1] (IC50) required 0.0027 µM.

`CN(CCCCCCN(C)CCCN1C(=O)c2cccc3cccc(c23)C1=O)CCCN1C(=O)c2cccc3cccc(c23)C1=O`: the IC50 came out at 0.03 µM in test [1] and 3.24 µM in test [2].

On to `CC(C)(CN1C(=O)c2cccc3cccc(c23)C1=O)C[N+](C)(C)CCCCCC[N+](C)(C)CCCN1C(=O)c2cccc3cccc(c23)C1=O`, for which the concentration for half-maximal inhibition (IC50) in test [1] was 4.27 µM; in test [2], above 100 µM.

As for `Cc1ccc2c(c1)C(=O)N(CCC[N+](C)(C)CCCCCC[N+](C)(C)CC(C)(C)CN1C(=O)c3cccc4cccc(c34)C1=O)C2=O`, the values for the IC50 in test [1] and in test [2] were 4.62 µM and above 100 µM, respectively.

On to `Cc1ccc2c(c1)C(=O)N(CCC[N+](C)(C)CCCCCC[N+](C)(C)CCCN1C(=O)c3cccc4cccc(c34)C1=O)C2=O`, for which the IC50 was 27.9 µM in test [1] and above 100 µM in test [2].

Regarding `CCC[N+](C)(C)CC(C)(C)CN1C(=O)c2cccc3cccc(c23)C1=O`, the IC50 is 1.2 µM in test [1] and above 100 µM in test [2].

For `Cc1ccc(C(=O)Nc2ccc(S(=O)(=O)O)c3cc(S(=O)(=O)O)cc(S(=O)(=O)O)c23)cc1NC(=O)c1cccc(NC(=O)Nc2cccc(C(=O)Nc3cc(C(=O)Nc4ccc(S(=O)(=O)O)c5cc(S(=O)(=O)O)cc(S(=O)(=O)O)c45)ccc3C)c2)c1` [SURAMIN HEXASODIUM], the IC50 in test [1] worked out at 0.3 µM.

Regarding `CC(C)(CN1C(=O)c2cccc3cccc(c23)C1=O)C[N+](C)(C)CCCCCC[N+](C)(C)CC(C)(C)CN1C(=O)c2cccc3cccc(c23)C1=O`, the IC50 in test [1] is 1.17 µM; in test [2], above 100 µM.

Consider `CC(C)(CN1C(=O)c2cccc3cccc(c23)C1=O)C[N+](C)(C)CCCCCCBr`, for which the half-maximal inhibitory concentration (IC50) in test [1] was 0.69 µM; in test [2], above 100 µM.

In the case of `CC(C)(CN1C(=O)c2cccc3cc([N+](=O)[O-])cc(c23)C1=O)C[N+](C)(C)CCCCCC[N+](C)(C)CCCN1C(=O)c2ccccc2C1=O`, the figures for the half-inhibitory concentration (IC50) in test [1] and in test [2] were 22.9 µM and above 100 µM, respectively.

Regarding `CC(C)(CN1C(=O)c2cccc3ccc([N+](=O)[O-])c(c23)C1=O)C[N+](C)(C)CCCCCC[N+](C)(C)CCCN1C(=O)c2ccccc2C1=O`, the values for the IC50 in test [1] and in test [2] were 8.78 µM and above 100 µM, respectively.

On to `CC(C)(CN1C(=O)c2cccc3ccc(N)c(c23)C1=O)C[N+](C)(C)CCCCCC[N+](C)(C)CCCN1C(=O)c2ccccc2C1=O`, for which the IC50 is 5.95 µM in test [1] and above 100 µM in test [2].

For the compound `CC(C)(CN1C(=O)c2cccc3cc(N)cc(c23)C1=O)C[N+](C)(C)CCCCCC[N+](C)(C)CCCN1C(=O)c2ccccc2C1=O`, the half-inhibitory concentration (IC50) in test [1] was 24.2 µM; in test [2] it was above 100 µM.
